The source of these data is patent US20100173914A1, “PHARMACEUTICALS, COMPOSITIONS AND METHODS OF MAKING AND USING THE SAME” (priority 2007, published 2010).

The target in assay [1] is T1, human adenosine A2A receptors (Homo sapiens, UniProt P29274).
T1 construct: host or cells: HEK-293
The assay is described as follows: Adenosine receptor binding: binding affinities at hA2A receptors ([3H]CGS-21680 displacement). To be noted: for Ki: displacement of [3H]CGS-21680, HEK-293 cell membranes; for A2A/A1 selectivity ratio (Ki A2A/Ki A1): ratio of measured Ki values at hA2A and hA1. From the text:
Adenosine Receptor Binding: Binding Affinities at hA2A Receptors
The compounds were examined in an assay measuring in vitro binding to human adenosine A2A receptors by determining the displacement of the adenosine A2A receptor selective radioligand 4-[2-[[6-Amino-9-(N-ethyl-β-D-ribofuranuronamidosyl)-9H-purin-2-yl]amino]ethyl]benzenepropanoic acid hydrochloride ([^3H]CGS-21680) using standard techniques. See, for example, Jarvis et al., J Pharmacol Exp Ther., 251(3):888-93, which is incorporated by reference in its entirety.
Frozen HEK-293 cells were homogenized in 65 mL of 50 mM Tris HCl buffer (pH 7.5) containing 10 mM MgCl2, and 0.1 IU/mL adenosine deaminase per pellet using a Ultra-Turrax homogenizer. The resultant homogenate was kept for immediate use in the binding assay.
(§1) Binding assays were performed in a total volume of 250 μL, containing [^3H]-CGS21680 (20.0 nM), membranes and additional drugs. Total binding was determined using drug dilution buffer (50 mM Tris-HCl pH 7.5, 10 mM MgCl2, 5% DMSO). Non-specific binding was determined using 300 μM CHA. Following incubation for 90 minutes at 21° C., assays were terminated by rapid filtration with GF/B filters (presoaked in 0.1% (w/v) polyethylenimine) using a Canberra Packard filtermate 196, washed 3 times with ice-cold Tris-HCl (pH 7.4). Filters were left to dry overnight, and Microscint-0 scintillation fluid was then added to the filters. The filters were then left for at least 2 hours before the radioactivity was assessed using a Canberra Packard TopCount microplate scintillation counter.
To determine the free ligand concentration, three vials were counted with 25 μL of [^3H]CGS21680 containing 4 mL of Ultima-Gold MV scintillant on a Beckman LS6500 multi-purpose scintillation counter.
(§2) Data was analysed using a 4 parameter logistical equation and non-linear regression which yields affinity constants (pIC50), and slope parameters:
where E is the quantity of binding and [A] is the competitor concentration. The Ki is then determined using the Cheng-Prusoff equation: […]

Assay [2] has as its target T2, human adenosine A1 receptors (Homo sapiens, UniProt P30542).
T2 construct: expressed in transfected cells; host or cells: CHO-K1
T2 sequence (P30542 1-326): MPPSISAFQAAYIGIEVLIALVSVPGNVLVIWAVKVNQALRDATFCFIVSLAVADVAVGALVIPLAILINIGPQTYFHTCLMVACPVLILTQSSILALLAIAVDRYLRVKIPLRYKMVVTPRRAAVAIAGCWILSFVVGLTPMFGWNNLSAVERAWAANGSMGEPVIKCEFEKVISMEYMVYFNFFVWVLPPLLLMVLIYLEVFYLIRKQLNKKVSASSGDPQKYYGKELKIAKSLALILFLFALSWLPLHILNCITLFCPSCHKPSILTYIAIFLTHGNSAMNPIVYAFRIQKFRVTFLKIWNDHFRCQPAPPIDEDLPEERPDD
As to the kind of experiment: Adenosine receptor binding: binding affinities at hA1 receptors ([3H]DPCPX displacement). To be noted: displacement of [3H]DPCPX, membranes of CHO-K1 cells transfected with human A1.
Text: Adenosine Receptor Binding: Binding Affinities at hA1 Receptors
The compounds were examined in an assay measuring in vitro binding to human adenosine A1 receptors by determining the displacement of the adenosine A1 receptor selective radioligand 8-Cyclopentyl-1,3-dipropylxanthine ([^3H]DPCPX) using standard techniques. See, for example, Lohse M J, et al., (1987), 8-Cyclopentyl-1,3-dipropylxanthine (DPCPX)—a selective high affinity antagonist radioligand for A1 adenosine receptors. Naunyn Schmiedebergs Arch Pharmacol., 336(2):204-10, which is incorporated by reference in its entirety.
as §1, with “Frozen CHO-K1 cells (transfected with a human adenosine A1 recepter expression vector) were homogenized in 130 mL of 50 mM Tris HCl buffer (pH 7.5) containing 10 mM MgCl2, and 0.1 IU/mL adenosine deaminase per pellet using a Ultra-Turrax homogeniser. The resultant homogenate was kept for immediate use in the binding. Binding” for “Binding”, “[^3H]-DPCPX (3.0” for “[^3H]-CGS21680 (20.0”, “pH:7.5,” for “pH 7.5,”, “N6-cyclohexyladenosine (CHA).” for “CHA.”
To determine the free ligand concentration, three vials were counted with 25 μL of [^3H]DPCPX containing 4 mL of Ultima-Gold MV scintillant on a Beckman LS6500 multi-purpose scintillation counter.
as §2
where E is the quantity of binding and [A] is the competitor concentration. The K, is then determined using the Cheng-Prusoff equation: […]

T1 sequence (P29274 whole entry): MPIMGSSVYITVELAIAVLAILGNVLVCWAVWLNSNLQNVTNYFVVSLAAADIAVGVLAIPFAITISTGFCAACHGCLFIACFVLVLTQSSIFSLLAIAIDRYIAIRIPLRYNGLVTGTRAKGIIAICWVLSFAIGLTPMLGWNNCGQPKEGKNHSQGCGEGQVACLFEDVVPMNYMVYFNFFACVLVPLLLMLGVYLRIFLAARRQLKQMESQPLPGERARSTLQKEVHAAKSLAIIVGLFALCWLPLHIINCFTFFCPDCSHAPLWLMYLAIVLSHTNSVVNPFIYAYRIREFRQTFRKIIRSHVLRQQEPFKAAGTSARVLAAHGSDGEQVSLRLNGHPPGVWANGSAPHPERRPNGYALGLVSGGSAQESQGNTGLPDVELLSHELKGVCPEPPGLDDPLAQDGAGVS

Consider `COc1cc(NS(=O)(=O)O)ccc1Cn1nnc2c(-c3ccc(C)o3)nc(N)nc21`, for which, in assay [1], the Ki is 100 to 1000 nM and the “A2A/A1 selectivity ratio (Ki A2A/Ki A1)” value was “H (more than 20)”. This compound also had a Ki in assay [2] of 1000 to 10000 nM.
The corresponding values for `COc1ccccc1-c1nc(N)nc2c1nnn2Cc1cccc(NS(=O)(=O)O)c1` [3-[(5-amino-7-(2-methoxyphenyl)-3H-[1,2,3]triazolo[4,5-d]pyrimidin-3-yl)methyl]-phenylsulfamic acid] are 1000 to 10000 nM, “E (less than 5)” and 1000 to 10000 nM.
Take `Cc1ccc(-c2nc(N)nc3c2nnn3Cc2cccc(NS(=O)(=O)O)c2)o1` [3-[(5-amino-7-(5-methylfuran-2-yl)-3H-[1,2,3]triazolo[4,5-d]pyrimidin-3-yl)methyl]phenylsulfamic acid]: in assay [1], the Ki was no more than 100 nM and the “A2A/A1 selectivity ratio (Ki A2A/Ki A1)” value is on record as “H (more than 20)”. For the same compound, the inhibitory constant (Ki) in assay [2] was in the range of 100 to 1000 nM.
In the same order, the values of `Nc1nc(-c2ccco2)c2nnn(Cc3cccc(NS(=O)(=O)O)c3)c2n1` [3-[(5-amino-7-(furan-2-yl)-3H-[1,2,3]triazolo[4,5-d]pyrimidin-3-yl)methyl]-phenylsulfamic acid] are 100 to 1000 nM, “H (more than 20)” and 1000 to 10000 nM.
In the same order, the values of `Nc1nc(-c2cccs2)c2nnn(Cc3cccc(NS(=O)(=O)O)c3)c2n1` [3-[(5-amino-7-(thiophen-2-yl)-3H-[1,2,3]triazolo[4,5-d]pyrimidin-3-yl)methyl]-phenylsulfamic acid] are 100 to 1000 nM, “G (10 to 20)” and 1000 to 10000 nM.
In the same order, the values of `Nc1nc(-c2ccccc2)c2nnn(Cc3cccc(NS(=O)(=O)O)c3)c2n1` [3-[(5-amino-7-phenyl-3H-[1,2,3]triazolo[4,5-d]pyrimidin-3-yl)methyl]-phenylsulfamic acid] are no more than 100 nM, “G (10 to 20)” and 1000 to 10000 nM.
Consider `COc1cc(Cn2nnc3c(-c4ccccc4OC)nc(N)nc32)ccc1NS(=O)(=O)O` [4-[(5-amino-7-(2-methoxyphenyl)-3H-[1,2,3]triazolo[4,5-d]pyrimidin-3-yl)methyl]-2-methoxyphenylsulfamic acid], for which, in assay [1], the Ki was greater than 10000 nM and the “A2A/A1 selectivity ratio (Ki A2A/Ki A1)” value is on record as “E (less than 5)”. Besides, the inhibitory constant (Ki) in assay [2] is greater than 10000 nM.
Consider `COc1ccccc1-c1nc(N)nc2c1nnn2Cc1ccc(NS(=O)(=O)O)c(C)c1` [4-[(5-amino-7-(2-methoxyphenyl)-3H-[1,2,3]triazolo[4,5-d]pyrimidin-3-yl)methyl]-2-methylphenylsulfamic acid], for which the Ki in assay [1] was 1000 to 10000 nM; in assay [2], greater than 10000 nM. For the same compound, the “A2A/A1 selectivity ratio (Ki A2A/Ki A1)” value in assay [1] is on record as “E (less than 5)”.
In the same order, the values of `COc1cc(NS(=O)(=O)O)ccc1Cn1nnc2c(-c3ccccc3OC)nc(N)nc21` [4-[(5-amino-7-(2-methoxyphenyl)-3H-[1,2,3]triazolo[4,5-d]pyrimidin-3-yl)methyl]-3-methoxyphenylsulfamic acid] are 1000 to 10000 nM, greater than 10000 nM and “E (less than 5)”.
In the same order, the values of `COc1ccccc1-c1nc(N)nc2c1nnn2Cc1ccc(NS(=O)(=O)O)cc1` [4-[(5-amino-7-(2-methoxyphenyl)-3H-[1,2,3]triazolo[4,5-d]pyrimidin-3-yl)methyl]phenylsulfamic acid] are 1000 to 10000 nM, greater than 10000 nM and “E (less than 5)”.
The corresponding values for `COc1cc(Cn2nnc3c(-c4ccc(C)o4)nc(N)nc32)ccc1NS(=O)(=O)O` [4-[(5-amino-7-(5-methylfuran-2-yl)-3H-[1,2,3]triazolo[4,5-d]pyrimidin-3-yl)methyl]-2-methoxyphenylsulfamic acid] are no more than 100 nM, 100 to 1000 nM and “H (more than 20)”.
Turning to `Cc1ccc(-c2nc(N)nc3c2nnn3Cc2ccc(NS(=O)(=O)O)c(C)c2)o1` [4-[(5-amino-7-(5-methylfuran-2-yl)-3H-[1,2,3]triazolo[4,5-d]pyrimidin-3-yl)methyl]-2-methylphenylsulfamic acid], in assay [1], the Ki was no more than 100 nM and the “A2A/A1 selectivity ratio (Ki A2A/Ki A1)” value was “H (more than 20)”. Also, the Ki in assay [2] was in the range of 100 to 1000 nM.
For the compound `Cc1ccc(-c2nc(N)nc3c2nnn3Cc2ccc(NS(=O)(=O)O)cc2)o1` [4-[(5-amino-7-(5-methylfuran-2-yl)-3H-[1,2,3]triazolo[4,5-d]pyrimidin-3-yl)methyl]phenylsulfamic acid], the Ki in assay [1] was no more than 100 nM; in assay [2], 1000 to 10000 nM. In assay [1], the “A2A/A1 selectivity ratio (Ki A2A/Ki A1)” value was “H (more than 20)”.
Consider `COc1cc(Cn2nnc3c(-c4ccco4)nc(N)nc32)ccc1NS(=O)(=O)O` [4-[(5-amino-7-(furan-2-yl)-3H-[1,2,3]triazolo[4,5-d]pyrimidin-3-yl)methyl]-2-methoxyphenylsulfamic acid], for which, in assay [1], the Ki is 1000 to 10000 nM and the “A2A/A1 selectivity ratio (Ki A2A/Ki A1)” value is “G (10 to 20)”. Also, in assay [2], the inhibition constant (Ki) was greater than 10000 nM.
`Cc1cc(Cn2nnc3c(-c4ccco4)nc(N)nc32)ccc1NS(=O)(=O)O` [4-[(5-amino-7-(furan-2-yl)-3H-[1,2,3]triazolo[4,5-d]pyrimidin-3-yl)methyl]-2-methylphenylsulfamic acid]: in assay [1], the inhibition constant Ki was no more than 100 nM and the “A2A/A1 selectivity ratio (Ki A2A/Ki A1)” value is given as “H (more than 20)”. Moreover, in assay [2], the inhibition constant (Ki) fell in the range of 100 to 1000 nM.
In the same order, the values of `COc1cc(NS(=O)(=O)O)ccc1Cn1nnc2c(-c3ccco3)nc(N)nc21` [4-[(5-amino-7-(furan-2-yl)-3H-[1,2,3]triazolo[4,5-d]pyrimidin-3-yl)methyl]-3-methoxyphenylsulfamic acid] are 100 to 1000 nM, “G (10 to 20)” and greater than 10000 nM.
The corresponding values for `Nc1nc(-c2ccco2)c2nnn(Cc3ccc(NS(=O)(=O)O)cc3)c2n1` [4-[(5-amino-7-(furan-2-yl)-3H-[1,2,3]triazolo[4,5-d]pyrimidin-3-yl)methyl]phenylsulfamic acid] are no more than 100 nM, “H (more than 20)” and 1000 to 10000 nM.
In the same order, the values of `Nc1nc(-c2ccccc2)c2nnn(Cc3ccc(NS(=O)(=O)O)cc3)c2n1` [4-[(5-amino-7-(phenyl,2,3]triazolo[4,5-d]pyrimidin-3-yl)methyl]phenylsulfamic acid] are 100 to 1000 nM, “G (10 to 20)” and 1000 to 10000 nM.
